In the supplement of paper PMC9663587:

Key:
[1] = compound: T1, CN(C)C(=O)c1cc2cnc(Nc3ccc(N4CCNCC4)cn3)nc2n1C1CCCC1 [LEE011/Ribociclib]; experiment: increase in dead-cell fraction, 72 h; higher = more death;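 note: breast cancer cell lines in 384-well plates, stained with Hoechst plus LIVE/DEAD far red dye and imaged, cells above an LDR intensity threshold counted dead, Hoechst-negative corpses included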
[2] = compound: T2, CN1CC[C@H](c2c(O)cc(O)c3c(=O)cc(-c4ccccc4Cl)oc23)[C@H](O)C1 [Flavopiridol]; experiment: as above
[3] = compound: CC(=O)c1c(C)c2cnc(Nc3ccc(N4CCNCC4)cn3)nc2n(C2CCCC2)c1=O; experiment: as above
[4] = compound: CCN1CCN(Cc2ccc(Nc3ncc(F)c(-c4cc(F)c5nc(C)n(C(C)C)c5c4)n3)nc2)CC1; experiment: as above
[5] = compound: T1, LEE011/Ribociclib; experiment: GR value, 72 h; higher = faster growth (1 = untreated, <0 = killing);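 note: breast cancer and non-malignant breast epithelial lines, nine half-log doses, viable cells counted by Hoechst and LIVE/DEAD dye imaging versus time-zero plates and DMSO controls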
[6] = compound: T2, Flavopiridol; experiment: as above
[7] = compound: CCOc1cc2ncc(C#N)c(Nc3ccc(OCc4ccccn4)c(Cl)c3)c2cc1NC(=O)/C=C/CN(C)C [Neratinib/HKI272]; experiment: as above
[8] = compound: CCc1cnn2c(NCc3ccc[n+]([O-])c3)cc(N3CCCC[C@H]3CCO)nc12; experiment: as above
[9] = compound: CC(=O)c1c(C)c2cnc(Nc3ccc(N4CCN(CCOCCOCCOCCNC(=O)COc5cccc6c5C(=O)N(C5CCC(=O)NC5=O)C6=O)CC4)cn3)nc2n(C2CCCC2)c1=O [BSJ-03-123]; experiment: as above
[10] = compound: CN(C)C/C=C/C(=O)Nc1ccc(C(=O)Nc2cccc(Nc3ncc(Cl)c(-c4c[nH]c5ccccc45)n3)c2)cc1 [THZ1]; experiment: as above
[11] = compound: CC(=O)c1c(C)c2cnc(Nc3ccc(N4CCNCC4)cn3)nc2n(C2CCCC2)c1=O; experiment: as above
[12] = compound: CCN1CCN(Cc2ccc(Nc3ncc(F)c(-c4cc(F)c5nc(C)n(C(C)C)c5c4)n3)nc2)CC1; experiment: as above

HTERT_HME1
increase in dead-cell fraction ([1]; 0.001 µM): 0.0038 | increase in dead-cell fraction ([1]; 0.003162 µM): 0.0127 | increase in dead-cell fraction ([1]; 0.01 µM): 0.0406 | increase in dead-cell fraction ([1]; 0.03162 µM): 0.0372 | increase in dead-cell fraction ([1]; 0.1 µM): 0.0514 | increase in dead-cell fraction ([1]; 0.3162 µM): 0.0715 | increase in dead-cell fraction ([1]; 1 µM): 0.0391 | increase in dead-cell fraction ([1]; 3.162 µM): 0.0932 | increase in dead-cell fraction ([1]; 10 µM): 0.132 | increase in dead-cell fraction ([2]; 0.0001 µM): -0.0184 | increase in dead-cell fraction ([2]; 0.0003162 µM): -0.0042 | increase in dead-cell fraction ([2]; 0.001 µM): 0.0033 | increase in dead-cell fraction ([2]; 0.003162 µM): 0.0052 | increase in dead-cell fraction ([2]; 0.01 µM): 0.0001 | increase in dead-cell fraction ([2]; 0.03162 µM): 0.007 | increase in dead-cell fraction ([2]; 0.1 µM): 0.051 | increase in dead-cell fraction ([2]; 0.3162 µM): 0.183 | increase in dead-cell fraction ([2]; 1 µM): 0.577 | increase in dead-cell fraction ([3]; 0.0003162 µM): -0.0026 | increase in dead-cell fraction ([3]; 0.001 µM): 0.0007 | increase in dead-cell fraction ([3]; 0.003162 µM): -0.0013 | increase in dead-cell fraction ([3]; 0.01 µM): -0.0019 | increase in dead-cell fraction ([3]; 0.03162 µM): 0.0014 | increase in dead-cell fraction ([3]; 0.1 µM): 0.0147 | increase in dead-cell fraction ([3]; 0.3162 µM): 0.0168 | increase in dead-cell fraction ([3]; 1 µM): 0.0267 | increase in dead-cell fraction ([3]; 3.162 µM): 0.0446 | increase in dead-cell fraction ([4]; 0.001 µM): 0.0004 | increase in dead-cell fraction ([4]; 0.003162 µM): -0.0056 | increase in dead-cell fraction ([4]; 0.01 µM): -0.0023 | increase in dead-cell fraction ([4]; 0.03162 µM): 0.002 | increase in dead-cell fraction ([4]; 0.1 µM): 0.0067 | increase in dead-cell fraction ([4]; 0.3162 µM): 0.0112 | increase in dead-cell fraction ([4]; 1 µM): 0.0329 | increase in dead-cell fraction ([4]; 3.162 µM): 0.0399 | increase in dead-cell fraction ([4]; 10 µM): 0.111 | GR value ([5]; 0.001 µM): 0.864 GR | GR value ([5]; 0.003162 µM): 0.776 GR | GR value ([5]; 0.01 µM): 0.741 GR | GR value ([5]; 0.03162 µM): 0.737 GR | GR value ([5]; 0.1 µM): 0.623 GR | GR value ([5]; 0.3162 µM): 0.568 GR | GR value ([5]; 1 µM): 0.538 GR | GR value ([5]; 3.162 µM): 0.467 GR | GR value ([5]; 10 µM): 0.29 GR | GR value ([6]; 0.0001 µM): 1 GR | GR value ([6]; 0.0003162 µM): 0.975 GR | GR value ([6]; 0.001 µM): 0.942 GR | GR value ([6]; 0.003162 µM): 0.876 GR | GR value ([6]; 0.01 µM): 0.892 GR | GR value ([6]; 0.03162 µM): 0.806 GR | GR value ([6]; 0.1 µM): 0.536 GR | GR value ([6]; 0.3162 µM): 0.155 GR | GR value ([6]; 1 µM): -0.408 GR | GR value ([7]; 0.0003162 µM): 1.07 GR | GR value ([7]; 0.001 µM): 1.09 GR | GR value ([7]; 0.003162 µM): 1.08 GR | GR value ([7]; 0.01 µM): 1.01 GR | GR value ([7]; 0.03162 µM): 0.89 GR | GR value ([7]; 0.1 µM): 0.57 GR | GR value ([7]; 0.3162 µM): 0.349 GR | GR value ([7]; 1 µM): 0.269 GR | GR value ([7]; 3.162 µM): 0.105 GR | GR value ([8]; 0.0001 µM): 1.08 GR | GR value ([8]; 0.0003162 µM): 1.07 GR | GR value ([8]; 0.001 µM): 1.1 GR | GR value ([8]; 0.003162 µM): 1.09 GR | GR value ([8]; 0.01 µM): 0.754 GR | GR value ([8]; 0.03162 µM): -0.268 GR | GR value ([8]; 0.1 µM): -0.267 GR | GR value ([8]; 0.3162 µM): -0.27 GR | GR value ([8]; 1 µM): -0.28 GR | GR value ([9]; 0.001 µM): 0.903 GR | GR value ([9]; 0.003162 µM): 0.87 GR | GR value ([9]; 0.01 µM): 0.78 GR | GR value ([9]; 0.03162 µM): 0.635 GR | GR value ([9]; 0.1 µM): 0.702 GR | GR value ([9]; 0.3162 µM): 0.551 GR | GR value ([9]; 1 µM): 0.386 GR | GR value ([9]; 3.162 µM): 0.34 GR | GR value ([9]; 10 µM): -0.153 GR | GR value ([10]; 0.0001 µM): 1.1 GR | GR value ([10]; 0.0003162 µM): 0.944 GR | GR value ([10]; 0.001 µM): 0.928 GR | GR value ([10]; 0.003162 µM): 0.72 GR | GR value ([10]; 0.01 µM): -0.0367 GR | GR value ([10]; 0.03162 µM): -0.275 GR | GR value ([10]; 0.1 µM): -0.295 GR | GR value ([10]; 0.3162 µM): -0.319 GR | GR value ([10]; 1 µM): -0.497 GR | GR value ([11]; 0.0003162 µM): 1.03 GR | GR value ([11]; 0.001 µM): 1.06 GR | GR value ([11]; 0.003162 µM): 1.03 GR | GR value ([11]; 0.01 µM): 0.956 GR | GR value ([11]; 0.03162 µM): 0.796 GR | GR value ([11]; 0.1 µM): 0.615 GR | GR value ([11]; 0.3162 µM): 0.458 GR | GR value ([11]; 1 µM): 0.354 GR | GR value ([11]; 3.162 µM): 0.235 GR | GR value ([12]; 0.001 µM): 1.05 GR | GR value ([12]; 0.003162 µM): 0.987 GR | GR value ([12]; 0.01 µM): 0.867 GR | GR value ([12]; 0.03162 µM): 0.718 GR | GR value ([12]; 0.1 µM): 0.588 GR | GR value ([12]; 0.3162 µM): 0.433 GR | GR value ([12]; 1 µM): 0.279 GR | GR value ([12]; 3.162 µM): 0.136 GR | GR value ([12]; 10 µM): 0.0346 GR
